For series [1], the system named is mouse peritoneal macrophages. Description: viability of macrophages after overnight incubation. It is filed as cell-based.
Series [2] deals with human peripheral blood eosinophils. Put plainly: complement C5a-stimulated degranulation (EPO release) of human eosinophils. It is filed as cell-based. Particulars: for pIC50: C5a (30 nM) + cytochalasin B, 10 min pre-incubation, 30 min at 37° C., read-out: concentration achieving 50% inhibition of EPO release; for effect on EPO release at high concentration: at the concentrations of 300 nM and above. The protocol: Example 1 involves the testing of the effect of complement C5a-induced degranulation of human blood eosinophils, and IgE-dependent degranulation of mast cells. Human peripheral blood eosinophils were purified to >98% by the immunomagnetic method. Aliquots containing 2.5×10^4 cells were added to each well of a 96-well microplate. The cells were separately pre-incubated for 10 minutes with CEE-1, CEE-2 or the drug solvent (DMSO) and then subsequently stimulated with recombinant human complement C5a (30 nM) in the presence of cytochalasin B (5 μg/mL). The reaction was allowed to proceed for 30 minutes at 37° C. The amount of the granular eosinophil peroxidases (EPO) released into the supernatant (as index of degranulation) was determined by the o-phenylenediamine method. The amount of EPO released was expressed as a percentage of the total cell content.
Cells were incubated with the each of CEE-1 and CEE-2 for 10 minutes before stimulation. Control uninhibited releases were in the range of 20-30% of total cell content. Results are shown as mean±SD, n=4.

The test system is the same in series [3]. Description: viability of eosinophils at concentrations that abolished EPO release. It counts as cell-based. An excerpt: In untreated cells, C5a induced the release of 20-30% of the total cellular content of EPO.
In series [4] the test system is RBL-2H3 mast cells.
In series [5] the test system is RBL-2H3 mast cells. Put plainly: antigen induced IgE-mediated degranulation (β-hexoseaminidase release) of mast cells (RBL-2H3). It is filed as cell-based, rat. Particulars: anti-DNP IgE sensitized, DNP-BSA 100 ng/mL, 10 min pre-treatment; read-out: concentration achieving 50% inhibition of β-hexoseaminidase release. The protocol:
The anti-allergic effect was tested on IgE-dependent mast cell degranulation using the rat basophilic leukemia (RBL-2H3) cell line model. The cells were passively sensitized with 0.5 μg/mL anti-DNP monoclonal IgE antibody for 1 hour, and then washed twice to remove unbound antibody. They were then separately pre-treated with CEE-1, CEE-2 or their solvent (DMSO) for 10 minutes before being stimulated with the specific antigen DNP-BSA (100 ng/mL). After 30 minutes of incubation, the amount of granular β-hexoseaminidase released into the supernatant (index of degranulation) was determined photometrically.
FIG. 3 illustrates the inhibition of antigen induced IgE-mediated degranulation (β-hexoseaminidase release) of mast cells (RBL-2H3) by CEE-1 and CEE-2. Cells were incubated with CEE-1 and CEE-2 for 10 minutes before stimulation. Control uninhibited releases were in the range of 15-26% of total cell content. Results are shown as mean±SD, n=3.

Series [6] has as its system mouse peritoneal macrophages. Put plainly: LPS-stimulated release of TNF-α from mouse peritoneal macrophages. It is filed as cell-based. Particulars: for pIC50: LPS 1 μg/mL for 18 hours, 30 min pre-treatment, ELISA, read-out: concentration that achieved 50% inhibition of TNF-α release. Here is the method:
The antiinflammatory effect of CEE-1 and CEE-2 was tested on LPS-stimulated release of tumor necrotic factor-α (TNF-α) from mouse peritoneal macrophages. Thioglycollate-induced peritoneal macrophages were obtained by peritoneal lavage of Balb c mice. Macrophages purified by adherence to plastic plate were cultured in a supplemented RPMI medium and pre-treated with CEE-1, CEE-2 or their solvent (DMSO) for 30 minutes before being stimulated with LPS (1 μg/mL) for 18 hours. The amount of TNF-α released into the supernatant was determined by ELISA using commercially available kits.
FIG. 4 illustrates the inhibitory effect of CEE-1 and CEE-2 on the release of TNF-α from LPS-stimulated mouse peritoneal macrophages. Cells were pre-treated with the drugs for 30 minutes before stimulation with LPS (1 μg/mL). The net uninhibited releases were in the range of 130-185 pg/ml. Values are shown as mean±SD, n=3.

The values below come from patent US8324422B2, “Enhydrazone esters for treating asthma, allergy and inflammation” (Kuwait University, priority 2008, dated 2012).

Structures are written as SMILES. pIC50: −log10 of the molar value.

Consider `CCOC(=O)C1C(=O)C=C(NNc2ccccc2)CC1c1ccccc1` (stereo not shown) [CEE-1, ethyl 4-phenylhydrazinocyclohex-3-en-2-oxo-6-phenyl-1-oate], for which the “viability of the cells” value is recorded as “no effect on their viability” in series [1] and “did not significantly affect the viability of the cells” in series [3]. The pIC50 in series [2] is 7.35; in the series on RBL-2H3 mast cells [5], 6.10; in series [6], 7.10. The “effect on EPO release at high concentration” value in series [2] is given as “completely abolished EPO release”. The “cellular toxicity (trypan blue exclusion test)” value in the series on RBL-2H3 mast cells [4] is on record as “no cellular toxicity”. Further, in series [6], the “effect on TNF-α release at 10 μM” value is reported as “completely abolished the release”.
`COC(=O)C1C(=O)C=C(NNc2ccccc2)CC1c1ccccc1` (stereo not shown) [CEE-2, methyl 4-phenylhydrazinocyclohex-3-en-2-oxo-6-phenyl-1-oate]: the “viability of the cells” value in series [1] is on record as “no effect on their viability”; in series [3] it was “did not significantly affect the viability of the cells”. Besides, the pIC50 in series [2] is 7.03; with RBL-2H3 mast cells [5], 5.92; in series [6], 7.09. Besides, the “effect on EPO release at high concentration” value in series [2] is “completely abolished EPO release”. The “cellular toxicity (trypan blue exclusion test)” value with RBL-2H3 mast cells [4] is on record as “no cellular toxicity”. Besides, the “effect on TNF-α release at 10 μM” value in series [6] was “completely abolished the release”.
